# Laboratory results from ChEMBL document CHEMBL3352607, “Exploiting the anti-HIV 6-desfluoroquinolones to design multiple ligands” (Bioorg Med Chem, 2014).
# Calls of active or inactive are those of the source. No cut-off for these calls is given here.
# Tests used:
# [1] = test system: Human immunodeficiency virus 2; assay: Antiviral activity against HIV2 ROD acutely infected in human MT4 cells assessed as inhibition of virus-induced cytopathogenic effect after 5 days by MTT assay; type: functional, organism-based; details: Human immunodeficiency virus 2, ISOLATE ROD, MT4, 120 h
# [2] = Cytotoxicity against mock-infected human MT4 cells after 5 days by MTT assay; type: cell-based
# [3] = test system: Human immunodeficiency virus 1; assay: Antiviral activity against HIV1 latently infected in PMA-stimulated human OM10.1 cells assessed as reduction in p24 antigen levels pre-incubated for 2 hrs with host cells followed by 2 day incubation; type: functional, organism-based
# [4] = biological target: T1, Human immunodeficiency virus type 1 reverse transcriptase (Human immunodeficiency virus 1, UniProt Q72547); assay: Inhibition of HIV1 recombinant wild type reverse transcriptase p66/p51 using dsDNA by microplate reader based assay
# [5] = test system: Human immunodeficiency virus 1; assay: Antiviral activity against HIV1 3B acutely infected in human MT4 cells assessed as inhibition of virus-induced cytopathogenic effect after 5 days by MTT assay; type: functional, organism-based; details: Human immunodeficiency virus 1, 3B, MT4, 120 h
# [6] = Cytotoxicity against human OM10.1 cells by MTT assay; type: cell-based
# [7] = biological target: T1, Human immunodeficiency virus type 1 reverse transcriptase; assay: Inhibition of HIV reverse transcriptase
# [8] = biological target: T2, Protein Tat (Human immunodeficiency virus type 1 group M subtype B (isolate HXB2)(HIV-1)) (UniProt P04608); assay: Inhibition of HIV1 Tat-mediated transactivation of HIV1 long terminal repeat in human HeLa cells after 24 hrs by LTR driven luciferase reporter assay; type: cell-based; details: Human immunodeficiency virus 1
# T2 sequence (whole entry): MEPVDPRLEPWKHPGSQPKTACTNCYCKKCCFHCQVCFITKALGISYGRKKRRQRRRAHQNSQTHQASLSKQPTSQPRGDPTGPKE
# [9] = test system: HeLa; assay: Cytotoxicity against human HeLa cells at 10 uM to 200 uM after 24 hrs; type: cell-based
# [10] = Selectivity index, ratio of CC50 for human OM10.1 cells to IC50 for HIV1 latently infected in human OM10.1 cells; type: functional
Compound,IC50 [4],IC50 [7],inhibition [8],EC50 [1],CC50 at 120 h [2],EC50 [3],EC50 [5],CC50 [6],Activity [9],Ratio CC50/IC50 [10]
Cc1ccnc2c1NC(=O)c1cccnc1N2C1CC1 [NEVIRAPINE],,,,> 15 µM,> 15 µM,,,,,
Cn1cc(C(=O)O)c(=O)c2cc(N)c(N3CCN(c4ccccn4)CC3)cc21,800 µM,,,0.25 µM,,0.076 µM,0.15 µM,31.2 µM,,
CCN1c2ncc(CCOc3cc[n+]([O-])c4ccccc34)cc2C(=O)N(C)c2cccnc21 [BILR 355],,0.017 µM,,,,,,,,

# Second part, led by results:
IC50 [4],IC50 [7],inhibition [8],Compound,EC50 [1],CC50 at 120 h [2],EC50 [3],EC50 [5],CC50 [6],Activity [9],Ratio CC50/IC50 [10]
73.4 µM,,inactive,CCN1c2ncccc2NC(=O)c2cc(NCCNc3cc4c(cc3N)c(=O)c(C(=O)O)cn4C)cnc21,> 200 µM,> 200 µM,,> 200 µM,,,
14.8 µM,,inactive,CCN1c2ncccc2NC(=O)c2cc(N3CCN(c4cc5c(cc4N)c(=O)c(C(=O)O)cn5C)CC3)cnc21,> 25.7 µM,25.7 µM,,> 25.7 µM,,,
8.4 µM,,Dose-dependent effect,CCN1c2ncccc2NC(=O)c2ccc(N3CCN(c4cc5c(cc4N)c(=O)c(C(=O)O)cn5C)CC3)nc21,> 23.5 µM,23.5 µM,5.11 µM,> 23.5 µM,18.4 µM,Non-toxic,4
